Consider one molecule from patent US12644142B2, “Sugar composition containing cyclic tetrasaccharide, use thereof, and production method therefor” (NAGASE VIITA CO., LTD., priority 2019, dated 2026).

The conditions of data set [1]: purity of 98% by mass, aqueous solution with a solid concentration of 50% by mass; cited from earlier work.
Data set [2] can be described thus: Preliminary evaluation of digestion and absorption after oral ingestion. The format is in vivo. Conditions: orally ingested into a human body.

For the molecule `OC[C@H]1O[C@@H]2OC[C@H]3O[C@H](O[C@@H]4[C@@H](O)[C@@H](OC[C@H]5O[C@H](O[C@H]([C@H]2O)[C@@H]1O)[C@H](O)[C@@H](O)[C@@H]5O)O[C@H](CO)[C@H]4O)[C@H](O)[C@@H](O)[C@@H]3O` [cyclic tetrasaccharide, cyclo{→6)-α-D-glucopyranosyl-(1→3)-α-D-glucopyranosyl-(1→6)-α-D-glucopyranosyl-(1→3)-α-D-glucopyranosyl-(1→}], in data set [1], the precipitation of crystals entry was “easily causes precipitation of crystals”. In addition, the “digestion and absorption after oral ingestion” value in data set [2] is listed as “reaches the large intestine without being digested or absorbed”.
